Source: patent US7846434B2, “Materials and methods for improved immunoglycoproteins” (Trubion Pharmaceuticals, Inc., priority 2006, dated 2010)
Values joined by “and” are separate entries in the source; they are usually repeats but may differ in a detail not shown here. Equal entries are not always repeated.

Experiments:
[1] = test system: DG44 CHO cells transfected with TRU-016; assay: Effect of castanospermine on DG44 CHO TRU-016 production, shake flasks; assay type: cell-based, Chinese hamster; conditions: for Average TRU-016 Produced (ug/mL) ± SD: duplicate flasks
Description: Prior to initiation of the experiments, DG44 CHO cells transfected with TRU-016 were grown in shake flasks in Ex-Cell™ 302 CHO serum-free media (SAFC Biosciences) supplemented with 1× non-essential amino acids (MediaTech), 1× sodium pyruvate (MediaTech), 4 mM L-glutamine (MediaTech), 500 nM methotrexate (MP Biomedicals) and 1 mg/L recombinant insulin (Recombulin-GIBCO/Invitrogen Corp.) at 37° C. and 5% carbon dioxide in a humidified incubator. A 200 mM stock concentration of castanospermine (Alexis Biochemicals) was prepared by dilution of the castanospermine in sterile, distilled/deionized water (MediaTech) and filtration through a 13 mm Acrodisc® with a 0.2 μm HT Tuffryn membrane (Pall Corporation). Stock solution was aliquoted into sterile, O-ringed, 0.5 mL microcentrifuge tubes (Fisherbrand, Fisher Scientific) and frozen at −20° C. Approximately 1 hour prior to initiation of experiments, needed aliquots were thawed at room temperature and the contents of each vial mixed well by vortexing.
For each experiment, cells in log phase growth were seeded in the above medium into a total volume of 60 mL in 250 mL shaker flasks at a density of 200,000 cells/mL and CS added at the concentration to be tested. Final CS concentrations of 800 μM, 400 μM, 200 μM, 100 μM, 50 μM, 25 μM and 0 μM were each tested in duplicate flasks. All cultures were incubated at 37° C. and 5% carbon dioxide in a humidified incubator and monitored at least every other day for viable cell density and overall cell viability.
Cultures were harvested on day 8 when overall cell viability was 50-70% (Expt. 1) and 30-50% (Expt. 2). Cells and cellular debris were removed by centrifugation in a Sorvall Super T21 at 3000 rpm for 20 minutes after which the supernatant was sterile filtered through a Millipore Steriflip unit with a 0.22 μm Millipore Express Plus membrane and stored at 2-8° C. until purification.

CD37 = assay: Binding of TRU-016 to CD37 expressing Daudi cells; design: species or system human
Description: The cells are then incubated with a FITC-conjugated goat anti-human IgG Fc specific antibody (Caltag H10501). This antibody will bind to the Fc region of the human IgG chain of TRU-016 bound to the cells. The antibody is diluted 1:50 in FACS buffer and 100 μL is added to each well. The plate is incubated at 4° C. in the dark for 45 minutes. Any unbound FITC-labeled antibody is removed by adding 100 μL of FACS buffer to each well, centrifuging at 250×g for 3 minutes at 15° C. followed by removal of supernatant. This is followed by a second wash with 200 μL/well FACS buffer. The cells are resusupended with 200 μL/well 2% paraformaldehyde and stored at 4° C. overnight. Each sample's bound fluorescence is measured on a BD FACSCalibur flow cytometry system and analyzed using Cell Quest Pro software (Becton Dickinson, ver 5.2). The GeoMean fluorescence intensity for each sample is plotted relative to the TRU-016 concentration. A dose response curve is generated and fit to a 4-parameter logistic (4-PL) curve using the SoftMax Pro software (Molecular Devices, ver 5.0.1). Titrations of TRU-016 are utilized to create a dose response curve of the untreated control and CS treated samples for comparison.

[2] = test system: DG44 CHO cells transfected with TRU-016; assay: Effect of castanospermine on DG44 CHO TRU-016 production, 3 L bioreactors; assay type: cell-based, Chinese hamster; conditions: for TRU-016 Produced as a % of Control: control average 427.7 ug/mL; for Viability at Harvest (%): harvest day 8
Description: Prior to growth in bioreactors, DG44 CHO cells transfected with TRU-016 were grown in the absence of castanospermine in vented shake flasks as described in Example 8.
For the bioreactor run, 3 L Applikon bioreactors were used. Growth media for cells was as described in Example 8 except that there was no methotrexate present. Starting culture volume for each bioreactor was 1700 mLs with a starting density of 3.5×10^5 cells/mL. A total of eight bioreactors were run in pairs with CS at 0 μM, 300 μM, 350 μM and 400 μM final concentration (one of the 400 μM CS bioreactors was lost to contamination on day 2 of culture). Castanospermine was added at the initiation of culture in the bioreactors with no further addition during the culture period. Other culture conditions included a temperature set point of 37° C., pH set point of 6.9 and dissolved O2 set point of 50%. Bioreactors were run in a fed-batch mode with L-glutamine and glucose added on an as needed basis. Soy hydrolysate (CHO Feed Bioreactor Supplement—C1615—Sigma) was added at 1% of starting culture volume on days 2, 4 and 6. Bioreactors were sampled daily for viable cell density, percent viable cells, media chemistries and osmolality. All cultures were harvested on day 8 when overall cell viability ranged from 39-50%.

O[C@H]1[C@H](O)[C@@H](O)CN2CC[C@H](O)[C@H]12 [castanospermine]
Average TRU-016 Produced (ug/mL) ± SD ([1]; CS 25 μM): 180.31 ± 6.6 µg/mL | ICA (Integral Cell Area) ([1]; CS 25 μM, listed as CS): 21.4 10^6 cells * days/mL and 21.1 10^6 cells * days/mL | Specific Productivity ([1]; CS 25 μM, listed as CS): 8.22 pg/cell/day and 8.78 pg/cell/day | Average TRU-016 Produced (ug/mL) ± SD ([1]; CS 50 μM): 176.63 ± 1.0 µg/mL | ICA (Integral Cell Area) ([1]; CS 50 μM, listed as CS): 21.6 10^6 cells * days/mL and 21.4 10^6 cells * days/mL | Specific Productivity ([1]; CS 50 μM, listed as CS): 8.15 pg/cell/day and 8.27 pg/cell/day | ICA (Integral Cell Area) ([1]; CS 100 μM): 21.6 10^6 cells * days/mL | Average TRU-016 Produced (ug/mL) ± SD ([1]; CS 100 μM): 161.83 ± 0.1 µg/mL | Specific Productivity ([1]; CS 100 μM, listed as CS): 7.48 pg/cell/day and 7.49 pg/cell/day | Average TRU-016 Produced (ug/mL) ± SD ([1]; CS 200 μM): 143.53 ± 1.4 µg/mL | ICA (Integral Cell Area) ([1]; CS 200 μM, listed as CS): 21.9 10^6 cells * days/mL and 22.0 10^6 cells * days/mL | Specific Productivity ([1]; CS 200 μM, listed as CS): 6.60 pg/cell/day and 6.47 pg/cell/day | Specific Productivity ([1]; CS 400 μM): 5.48 pg/cell/day | Average TRU-016 Produced (ug/mL) ± SD ([1]; CS 400 μM): 124.93 ± 1.4 µg/mL | ICA (Integral Cell Area) ([1]; CS 400 μM, listed as CS): 23.0 10^6 cells * days/mL and 22.4 10^6 cells * days/mL | Specific Productivity ([1]; CS 400 μM, listed as CS): 5.53 pg/cell/day | Average TRU-016 Produced (ug/mL) ± SD ([1]; CS 800 μM): 99.65 ± 6.1 µg/mL | ICA (Integral Cell Area) ([1]; CS 800 μM, listed as CS): 23.9 10^6 cells * days/mL and 23.8 10^6 cells * days/mL | Specific Productivity ([1]; CS 800 μM, listed as CS): 3.99 pg/cell/day and 4.36 pg/cell/day | cell viability and growth (integral cell area) ([1]; CS 25-800 μM): did not appear to be significantly affected | binding of TRU-016 to CD37 expressing cells (dose response curves) (CD37; CHO-K1 produced glycovariants vs control): did not alter | binding of TRU-016 to CD37 expressing cells (dose response curves) (CD37; DG44 CHO produced, all CS treated samples vs untreated): did not alter | TRU-016 Produced as a % of Control ([2]; CS 300 μM, listed as CS): 68.0% and 75.1% | Viability at Harvest (%) ([2]; CS 300 μM, listed as CS): 48.8% and 42.4% | ICA (10^6 cells * days/mL) ([2]; CS 300 μM, listed as CS): 47.5 10^6 cells * days/mL and 46.2 10^6 cells * days/mL | Specific Productivity (pg/cell/day) ([2]; CS 300 μM, listed as CS): 6.12 pg/cell/day and 6.96 pg/cell/day | TRU-016 Produced ([2]; CS 300 μM, listed as CS): 291.0 µg/mL and 321.3 µg/mL | TRU-016 Produced as a % of Control ([2]; CS 350 μM, listed as CS): 73.6% and 74.4% | Viability at Harvest (%) ([2]; CS 350 μM, listed as CS): 39.0% and 41.6% | ICA (10^6 cells * days/mL) ([2]; CS 350 μM, listed as CS): 46.6 10^6 cells * days/mL and 45.5 10^6 cells * days/mL | Specific Productivity (pg/cell/day) ([2]; CS 350 μM, listed as CS): 6.75 pg/cell/day and 7.00 pg/cell/day | TRU-016 Produced ([2]; CS 350 μM, listed as CS): 314.7 µg/mL and 318.1 µg/mL | ICA (10^6 cells * days/mL) ([2]; CS 400 μM): 47.9 10^6 cells * days/mL | Specific Productivity (pg/cell/day) ([2]; CS 400 μM): 6.49 pg/cell/day | TRU-016 Produced ([2]; CS 400 μM): 311.0 µg/mL | TRU-016 Produced as a % of Control ([2]; CS 400 μM): 72.7% | Viability at Harvest (%) ([2]; CS 400 μM): 50.4% | suppression of TRU-016 production relative to non-treated control bioreactors ([2]; CS 300-400 μM): 24.9-32% | cell growth and viability in the bioreactors ([2]; CS 300-400 μM vs no CS): quite comparable
